The values below come from patent US12624004B2 (Fudan University, priority 2019, dated 2026).

Counter-ions that a name gives are not always drawn.

The test system of one assay is Female mice. As to the kind of experiment: In vivo hot plate method analgesia test. The settings on record: intraperitoneal, 5 mg/kg dose; for % MPE (5 mg/kg): Table 2-2, hot plate 55° C.; for Maximum percentage effective analgesic (% MPE): Table 1-2, hot plate 55° C. The procedure, abridged: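 Female mice (~20 g) on a 55° C hot plate, hindpaw response latency as pain threshold (pre-screen 5–30 s, 60 s cut-off). Latencies at 15, 30, 60 and 120 min after intraperitoneal dosing. %MPE = (post−pre latency)/(60−pre)×100, ED50 derived from %MPE.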
In general terms: Thermal pain tests record how soon the animal reacts.

In a further assay the target is T1, δ opioid receptor (Homo sapiens, UniProt P41143).
T1 construct: expressed in transfected cells; host or cells: CHO cells (membranes)
As to the kind of experiment: Competition binding assay on membranes of CHO cells expressing δ opioid receptor, [3H]-labeled ligand. The settings on record: 0.5 h, read-out: δOR Binding rate (%); for inhibition at 1 µM: Table 2-1, 1 μM concentration of compound; for inhibition at 10 µM: Table 1-1, 10 μM concentration of compound. The procedure, abridged: (§1)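 CHO membranes (20–30 μg protein) incubated with [3H]-labeled ligand at 1–2 nM and test compounds, 30 min at 30° C; nonspecific binding with 1 μM corresponding ligand. Filtered on GF/C, washed with 50 mM Tris-HCl pH 7.4, scintillation-counted. IC50 converted to Ki by Ki=IC50/(1+[L]/Kd).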

A further assay concerns the target T2, μ opioid receptor (Homo sapiens, UniProt P35372).
T2 construct: expressed in transfected cells; host or cells: CHO cells (membranes)
Briefly: Competition binding assay on membranes of CHO cells expressing μ opioid receptor, [3H]-labeled ligand. The settings on record: for Ki: Table 2-1, read-out: μOR Ki; for inhibition at 10 µM: Table 1-1, 10 μM concentration of compound, mean ± SD of three measurements, read-out: μOR Binding rate (%). The procedure, abridged:
as §1

In the next assay the target is T3, κ opioid receptor (Homo sapiens, UniProt P41145).
T3 construct: expressed in transfected cells; host or cells: CHO cells (membranes)
Briefly: Competition binding assay on membranes of CHO cells expressing κ opioid receptor, [3H]-labeled ligand. The note with it: for inhibition at 1 µM / inhibition at 10 µM: 0.5 h, read-out: κOR Binding rate (%); for inhibition at 1 µM / Ki: Table 2-1; for inhibition at 1 µM: 1 μM concentration of compound; for Ki: read-out: κOR Ki; for inhibition at 10 µM: Table 1-1, 10 μM concentration of compound. Summed up:
as §1

One may read the Ki as a measure of affinity in units of concentration, obtained from inhibition or displacement. As for `CCCS(=O)(=O)N1CCC(O)(c2cccc(OC)c2)C(CN(C)C)C1.Cl` (stereo not shown) [FWBH19, 3-((Dimethylamino)methyl)-4-(3-methoxyphenyl)-1-(propylsulfonyl)piperidin-4-ol hydrochloride], in the assay with Female mice, the “% MPE (5 mg/kg)” value is given as 17.04%. The results for the inhibition at 1 µM at δ opioid receptor and on κ opioid receptor were 17.5 ± 4.38% and 19.1 ± 10.3%, respectively. At μ opioid receptor, the Ki was found to be 133 ± 3.1 nM.

On to `COc1cccc(C2(O)CCN(S(=O)(=O)C(C)C)CC2CN(C)C)c1.Cl` (stereo not shown) [FWBH20, 3-((Dimethylamino)methyl)-1-(isopropylsulfonyl)-4-(3-methoxyphenyl)piperidin-4-ol hydrochloride], for which the “% MPE (5 mg/kg)” value in the assay on Female mice was 0%. Also, the inhibition at 1 µM at δ opioid receptor came out at 20.8 ± 1.91%; on κ opioid receptor, 6.88 ± 4.38%. In addition, on μ opioid receptor, the inhibition constant (Ki) turned out to be 255 ± 5.3 nM.

`C=CCS(=O)(=O)N1CCC(O)(c2cccc(OC)c2)C(CN(C)C)C1.Cl` (stereo not shown) [FWBH21, 1-(Allylsulfonyl)-3-((dimethylamino)methyl)-4-(3-methoxyphenyl)piperidin-4-ol hydrochloride]: the “% MPE (5 mg/kg)” value with Female mice is reported as 18.80%. Besides, the inhibition at 1 µM stood at 31.52 ± 0.21% at δ opioid receptor and 17.1% on κ opioid receptor. For the same compound, the inhibitory constant (Ki) at μ opioid receptor was determined as 40.4 ± 4.99 nM.

As for `COc1cccc(C2(O)CCN(S(=O)(=O)Cc3cccc([N+](=O)[O-])c3)CC2CN(C)C)c1.Cl` (stereo not shown) [FWBH22, 3-((Dimethylamino)methyl)-4-(3-methoxyphenyl)-1-((3-nitrobenzyl)sulfonyl)piperidin-4-ol hydrochloride], in the assay on Female mice, the “% MPE (5 mg/kg)” value is 41.43%. Besides, the inhibition at 1 µM came to 10.2 ± 3.19% at δ opioid receptor and 32.7 ± 3.1% on κ opioid receptor. In addition, the Ki on μ opioid receptor was determined as 212 ± 9 nM.

On to `COc1cccc(C2(O)CCN(S(C)(=O)=O)CC2CN(C)C)c1.Cl` (stereo not shown) [FWBH23, 3-((Dimethylamino)methyl)-4-(3-methoxyphenyl)-1-(methylsulfonyl)piperidin-4-ol hydrochloride], for which the “% MPE (5 mg/kg)” value with Female mice came to 16.87%. Besides, the inhibition at 1 µM on δ opioid receptor amounted to 16 ± 1.99%; on κ opioid receptor, 14.3 ± 3.33%. In addition, at μ opioid receptor, the Ki amounted to 192 ± 15 nM.

As to `COc1cccc(C2(O)CCN(S(=O)(=O)C[C@@]34CC[C@@H](CC3=O)C4(C)C)CC2CN(C)C)c1` (stereo partly drawn) [FWBH24, (1R,4S)-1-(((3-((Dimethylamino)methyl)-4-hydroxy-4-(3-methoxyphenyl)piperidin-1-yl)sulfonyl)methyl)-7,7-Dimethylbicyclo[2.2.1]heptan-2-one hydrochloride], the “% MPE (5 mg/kg)” value in the assay on Female mice amounted to 54.81%. For the same compound, the inhibition at 1 µM at δ opioid receptor stood at 11.1 ± 1.3%. For the same compound, the Ki was determined as 65.1 ± 5.36 nM on μ opioid receptor and 433 ± 15.3 nM on κ opioid receptor.

In the case of `COc1cccc(C2(O)CCN(S(=O)(=O)C[C@]34CC[C@H](CC3=O)C4(C)C)CC2CN(C)C)c1` (stereo partly drawn) [FWBH25, (1S,4R)-1-(((3-((Dimethylamino)methyl)-4-hydroxy-4-(3-methoxyphenyl)piperidin-1-yl)sulfonyl)methyl)-7,7-dimethylbicyclo[2.2.1]heptan-2-one hydrochloride], the “% MPE (5 mg/kg)” value in the assay on Female mice came out at 6.03%. On δ opioid receptor, the inhibition at 1 µM stood at 14.3 ± 8.63%. Besides, the results for the Ki on μ opioid receptor and on κ opioid receptor were 50.8 ± 1.56 nM and 54 ± 20.9 nM, respectively.

With `COc1cccc(C2(O)CCN(S(=O)(=O)C[C@@]34CC[C@@H](CC3O)C4(C)C)CC2CN(C)C)c1` (stereo partly drawn) [FWBH26, 3-((Dimethylamino)methyl)-1-((((1R,4S)-2-hydroxy-7,7-dimethylbicyclo[2.2.1]hept-1-yl)methyl)sulfonic acid acyl)-4-(3-methoxyphenyl)piperidin-4-ol hydrochlorid, hydrochloride], the “% MPE (5 mg/kg)” value in the assay with Female mice was determined as 44.91%. Besides, at δ opioid receptor, the inhibition at 1 µM came to 9.15 ± 1.92%. Also, the Ki at μ opioid receptor came to 11.5 ± 1.6 nM; at κ opioid receptor, 8.2 ± 3.1 nM.

On to `COc1cccc(C2(O)CCN(S(=O)(=O)C[C@]34CC[C@H](CC3O)C4(C)C)CC2CN(C)C)c1` (stereo partly drawn) [FWBH27, 3-((Dimethylamino)methyl)-1-((((1S,4R)-2-hydroxy-7,7-dimethylbicyclo[2.2.1]hept-1-yl)methyl)sulfonyl)-4-(3-methoxyphenyl)piperidin-4-ol hydrochloride], for which the “% MPE (5 mg/kg)” value in the assay on Female mice is 12.21%. Moreover, the inhibition at 1 µM at δ opioid receptor is 24.8 ± 0.77%. Further, the inhibition constant Ki at μ opioid receptor amounted to 32.5 ± 3.3 nM; on κ opioid receptor, 27.7 ± 3.9 nM.

`COc1cccc(C2(O)CCC(N(C)S(=O)(=O)c3ccccc3)CC2CN(C)C)c1.Cl` (stereo not shown) [N-(3-((Dimethylamino)methyl)-4-hydroxy-4-(3-methoxyphenyl)cyclohexyl)-N-methylbenzenesulfonamide hydrochloride]: the “Maximum percentage effective analgesic (% MPE)” value with Female mice is on record as 15.8%. For the same compound, the inhibition at 10 µM turned out to be 0% at δ opioid receptor, 86.7 ± 1.6% at μ opioid receptor and 46.7 ± 9.2% on κ opioid receptor.

Take `COc1cccc(C2(O)CCC(N(C)S(=O)(=O)c3cccs3)CC2CN(C)C)c1.Cl` (stereo not shown) [N-(3-((Dimethylamino)methyl)-4-hydroxy-4-(3-methoxyphenyl)cyclohexyl)-N-methylthiophene-2-sulfonamide hydrochloride]: the “Maximum percentage effective analgesic (% MPE)” value with Female mice stood at 14.3%. Besides, the inhibition at 10 µM stood at 0% on δ opioid receptor, 62 ± 6.8% at μ opioid receptor and 51.4 ± 7.5% at κ opioid receptor.

In the case of `COc1cccc(C2(O)CCC(NS(=O)(=O)c3cccs3)CC2CN(C)C)c1.Cl` (stereo not shown) [N-(3-((Dimethylamino)methyl)-4-hydroxy-4-(3-methoxyphenyl)cyclohexyl)thiophene-2-sulfonamide hydrochloride], the “Maximum percentage effective analgesic (% MPE)” value with Female mice is listed as 19.5%. Moreover, the inhibition at 10 µM on δ opioid receptor came out at 0%; at μ opioid receptor it was 57 ± 4.8%; on κ opioid receptor, 37 ± 6.8%.

Regarding `COc1cccc(C2(O)CCC(N(Cc3ccccc3)S(=O)(=O)c3cccs3)CC2CN(C)C)c1.Cl` (stereo not shown) [N-Benzyl-N-(3-((dimethylamino)methyl)-4-hydroxy-4-(3-methoxyphenyl)cyclohexyl)thiophene-2-sulfonamide hydrochloride], in the assay with Female mice, the “Maximum percentage effective analgesic (% MPE)” value was 22.8%. Moreover, the inhibition at 10 µM turned out to be 0% at δ opioid receptor, 68.4 ± 3.4% at μ opioid receptor and 71.2 ± 2.7% at κ opioid receptor.
